This is an account of results in patent US20260265262A1, “CDK2 INHIBITORS AND METHODS OF USING THE SAME” (Cedilla Therapeutics, Inc., priority 2022, published 2026).

Like-named read-outs stand apart in the source and are kept apart here. Some results are limits rather than exact numbers.

One assay addresses CDK2/Cyclin E1 (Homo sapiens, UniProt P24941). In words: ADP-Glo Luminescent Kinase Assay (CDK2/E1-37C). The assay is classed as biochemical. As to conditions: 0.18 nM CDK2/Cyclin E1, 100 μM ATP, 1.5 μM Histone H1, 37° C., 60 min pre-incubation; read-out: ADPGLO (CDK2/E1-37C): IC50. The method, boiled down: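 Human CDK2/Cyclin E1 preincubated with inhibitor 60 min at 37 °C, then reacted 90 min at 37 °C with final 0.18 nM enzyme, 100 μM ATP, 1.5 μM Histone H1 in HEPES pH 7.5 buffer. ADP formed read by ADP-Glo luminescence; IC50 from four-parameter fit.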
(In general: ADP-Glo first removes unused ATP, then detects ADP through luciferase.)

In another assay the test system is Kuramochi cells. In words: IncuCyte cell proliferation assay. Type of assay: cell-based. The method in brief: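 Kuramochi cells expressing mApple-H2B were treated with a 10-point, ½-log dilution series (top 20 μM). Fluorescent nuclei were counted by IncuCyte imaging at 0 and 72 h. The fold change in cell count was normalized to DMSO wells and fitted to dose-response curves to give […].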

Where [1] appears, read: Kuramochi cells labeled with mApple-H2B, cell count 0 to 72 hours, 20 μM top concentration, read-out: IncuCyte Kuramochi RB-WT: IC50.

With `C[C@@H](OCC12CCC(CC1)OC2)[C@H](NC(=O)[C@@H]1CN(C(=O)c2cnc(O)cn2)CC12CN(C(=O)C1(C(F)(F)F)CC1)C2)C(=O)N1CCC(c2ccc(C(F)(F)F)cc2C(=O)O)CC1` [Example I-1, 2-(1-(O-((2-oxabicyclo[2.2.2]octan-4-yl)methyl)-N—((S)-6-(5-hydroxypyrazine-2-carbonyl)-2-(1-(trifluoromethyl)cyclopropane-1-carbonyl)-2,6-diazaspiro[3.4]octane-8-carbonyl)-L-threonyl)piperidin-4-yl)-5-(trifluoromethyl)benzoic acid], the IC50 was less than 0.5 µM at CDK2/Cyclin E1 and more than 20 µM in the assay with Kuramochi cells (setting [1]).
The like results for `C[C@@H](OCC12CCC(CC1)OC2)[C@H](NC(=O)[C@@H]1CN(C(=O)c2cnn(Cc3ccc(C(F)(F)F)cc3)c2)CC12CN(C(=O)C1(C(F)(F)F)CC1)C2)C(=O)N1CCC(c2ccc(OC(C)(C)C(=O)O)c(C(F)(F)F)c2)CC1` [Example I-4] were, in that order, less than 0.5 µM and more than 20 µM.
In the case of `N#Cc1ccc(Cn2cc(C(=O)N3CC(C(=O)N[C@@H](COCC45CCC(CC4)OC5)c4ccc(C(=O)O)cc4)C4(C3)CN(C(=O)C3(C(F)(F)F)CC3)C4)cn2)cc1` (stereo partly drawn) [Example I-23, 4-((1R)-2-((2-oxabicyclo[2.2.2]octan-4-yl)methoxy)-1-(6-(1-(4-cyanobenzyl)-1H-pyrazole-4-carbonyl)-2-(1-(trifluoromethyl)cyclopropane-1-carbonyl)-2,6-diazaspiro[3.4]octane-8-carboxamido)ethyl)benzoic acid], the results for the IC50 at CDK2/Cyclin E1 and with Kuramochi cells (setting [1]) were more than 10 µM and more than 20 µM, respectively.
Regarding `COC(=O)c1ccc(C2CCN(C(=O)[C@@H](NC(=O)[C@@H]3CN(C(=O)c4cnn(Cc5ccc(C(F)(F)F)cc5)c4)CC34CN(C(=O)C3(C(F)(F)F)CC3)C4)[C@@H](C)OCC34CCC(CC3)OC4)CC2)cc1` [Example I-13], the IC50 at CDK2/Cyclin E1 is less than 0.5 µM; with Kuramochi cells (setting [1]), 0.5 to 5 µM.
Turning to `C[C@@H](OCC1CCCCC1)[C@H](NC(=O)[C@@H]1CN(C(=O)c2cnn(Cc3ccc(C(F)(F)F)cc3)c2)CC12CN(C(=O)[C@H]1CC1(C)C)C2)C(=O)N1CCC(c2ccc(C(=O)O)cc2)CC1` [Example I-29], the IC50 on CDK2/Cyclin E1 was less than 0.5 µM; in the assay with Kuramochi cells (read-out: IncuCyte Kuramochi RB-WT: IC50 (μM)), 0.5 to 5 µM.
As to `C[C@@H](OCC12CCC(CC1)OC2)[C@H](NC(=O)[C@@H]1CN(C(=O)c2cnn(Cc3ccc(C(F)(F)F)cc3)c2)CC12CN(C(=O)C1(C(F)(F)F)CC1)C2)C(=O)N1CCC(c2ccc(C(=O)O)c(O)c2)CC1` [Example I-81, 4-(1-(O-((2-Oxabicyclo[2.2.2]octan-4-yl)methyl)-N—((S)-6-(1-(4-(trifluoromethyl)benzyl)-1H-pyrazole-4-carbonyl)-2-(1-(trifluoromethyl)cyclopropane-1-carbonyl)-2,6-diazaspiro[3.4]octane-8-carbonyl)-L-threonyl)piperidin-4-yl)-2-hydroxybenzoic acid], the IC50 is less than 0.5 µM at CDK2/Cyclin E1 and more than 20 µM with Kuramochi cells (setting [1]).
The like results for `C[C@@H](OCC1CCCCC1)[C@H](NC(=O)[C@@H]1CN(C(=O)c2cnn(Cc3ccccc3)c2)CC12CN(C(=O)[C@H]1CC1(C)C)C2)C(=O)N1CCCC[C@@H]1C(=O)O` [Example I-35] were, in that order, less than 0.5 µM and more than 20 µM.
The like results for `C[C@@H](OCC12CCC(CC1)OC2)[C@H](NC(=O)[C@@H]1CN(C(=O)c2cnn(Cc3ccccc3C(=O)O)c2)CC12CN(C(=O)C1(C(F)(F)F)CC1)C2)C(=O)N1CCNCC1` [Example I-109] were, in that order, less than 0.5 µM and more than 20 µM.
The matching figures for `COC(=O)c1ccc(N2CCN(C(=O)[C@@H](NC(=O)[C@@H]3CN(C(=O)c4cnn(Cc5ccccc5)c4)CC34CN(C(=O)[C@H]3CC3(C)C)C4)[C@@H](C)OCC3CCCCC3)CC2)cc1` [Example I-31]: less than 0.5 µM and less than 0.5 µM.
On to `C[C@@H](OCC12CCC(CC1)OC2)[C@@H](COC1CCOCC1)NC(=O)[C@@H]1CN(C(=O)c2cncs2)CC12CN(C(=O)C1(C(F)(F)F)CC1)C2` [Example I-113, (8S)—N-[(2R,3R)-3-{2-oxabicyclo[2.2.2]octan-4-ylmethoxy}-1-(oxan-4-yloxy)butan-2-yl]-6-(1,3-thiazole-5-carbonyl)-2-[1-(trifluoromethyl)cyclopropanecarbonyl]-2,6-diazaspiro[3.4]octane-8-carboxamide], for which the IC50 was 0.5 to 5 µM on CDK2/Cyclin E1 and more than 20 µM in the assay on Kuramochi cells (setting [1]).
The matching figures for `CNC(=O)C(C)(C)CNC(=O)[C@@H](NC(=O)[C@@H]1CN(C(=O)c2cnn(Cc3ccccc3)c2)CC12CN(C(=O)[C@H]1CC1(C)C)C2)[C@@H](C)OCC1CCCCC1` [Example I-37, (S)-6-(1-benzyl-1H-pyrazole-4-carbonyl)-N-((2S,3R)-3-(cyclohexylmethoxy)-1-((2,2-dimethyl-3-(methylamino)-3-oxopropyl)amino)-1-oxobutan-2-yl)-2-((S)-2,2-dimethylcyclopropane-1-carbonyl)-2,6-diazaspiro[3.4]octane-8-carboxamide]: less than 0.5 µM and 5 to 20 µM.
The like results for `C[C@@H](OCC12CCC(CC1)OC2)[C@H](NC(=O)[C@@H]1CN(C(=O)c2cnn(Cc3ccccc3C(=O)O)c2)CC12CN(C(=O)C1(C(F)(F)F)CC1)C2)C(=O)NCCC1CCNCC1` (stereo in doubt) [Example I-102] were, in that order, 0.5 to 5 µM and more than 20 µM.
`C[C@@H](OCC12CCC(CC1)OC2)[C@H](NC(=O)[C@@H]1CN(C(=O)c2cnc(O)cn2)CC12CN(C(=O)C1(C(F)(F)F)CC1)C2)C(=O)N1CCC(c2ccc(C(=O)O)c(C(F)(F)F)c2)CC1` [I-89 3rd, 4-(1-(O-((2-oxabicyclo[2.2.2]octan-4-yl)methyl)-N-(6-(5-hydroxypyrazine-2-carbonyl)-2-(1-(trifluoromethyl)cyclopropane-1-carbonyl)-2,6-diazaspiro[3.4]octane-8-carbonyl)-L-threonyl)piperidin-4-yl)-2-(trifluoromethyl)benzoic acid]: the IC50 on CDK2/Cyclin E1 is less than 0.5 µM; in the assay with Kuramochi cells (setting [1]), more than 20 µM.
Regarding `COC(=O)c1ccc([C@@H](COCC23CCC(CC2)OC3)NC(=O)C2CN(C(=O)c3cnn(Cc4ccc(C#N)cc4)c3)CC23CN(C(=O)C2(C(F)(F)F)CC2)C3)cc1` (stereo partly shown) [Example I-20], the results for the IC50 at CDK2/Cyclin E1 and in the assay on Kuramochi cells (setting [1]) were 5 to 10 µM and more than 20 µM, respectively.
In the case of `C[C@@H](OCC12CCC(CC1)OC2)[C@H](NC(=O)[C@@H]1CN(C(=O)c2cnc(O)cn2)CC12CN(C(=O)[C@H]1CC1(C)C)C2)C(=O)N1CCC(c2ccc(C(F)(F)F)cc2C(=O)O)CC1` [Example I-10], the results for the IC50 at CDK2/Cyclin E1 and in the assay with Kuramochi cells (setting [1]) were less than 0.5 µM and more than 20 µM, respectively.
For `C[C@@H](OCC12CCC(CC1)OC2)[C@H](NC(=O)[C@@H]1CN(C(=O)c2cnn(Cc3ccc(C(F)(F)F)cc3C(=O)O)c2)CC12CN(C(=O)C1(C(F)(F)F)CC1)C2)C(=O)N1CCC(c2nccs2)CC1` [Example I-83, ((4-((S)-8-(((2S,3R)-3-((2-oxabicyclo[2.2.2]octan-4-yl)methoxy)-1-oxo-1-(4-(thiazol-2-yl)piperidin-1-yl)butan-2-yl)carbamoyl)-2-(1-(trifluoromethyl)cyclopropane-1-carbonyl)-2,6-diazaspiro[3.4]octane-6-carbonyl)-1H-pyrazol-1-yl)methyl)-5-(trifluoromethyl)benzoic acid], the results for the IC50 on CDK2/Cyclin E1 and with Kuramochi cells (setting [1]) were less than 0.5 µM and more than 20 µM, respectively.
Regarding `C[C@@H](OCC12CCC(CC1)OC2)[C@H](NC(=O)[C@@H]1CN(C(=O)c2cnn(Cc3ccc(C(F)(F)F)cc3)c2)CC12CN(C(=O)C1(C(F)(F)F)CC1)C2)C(=O)NCCc1nnn[nH]1` [Example I-16], the values for the IC50 at CDK2/Cyclin E1 and in the assay with Kuramochi cells (setting [1]) were 5 to 10 µM and more than 20 µM, respectively.
